{"source": "patent US12544334B2", "about": "“Metabolisable pH sensitive polymersomes” (UCL BUSINESS LTD, priority 2018, dated 2026)", "origin": "cited, not measured here", "conditions": "imidazole-bearing acid before conjugation to the cysteine N-terminus"}
{"smiles": "O=C(O)Cc1c[nH]cn1", "note": "[4-imidazolacetic acid]", "values": [{"measurement": "pKa", "value": 6.6}]}
{"smiles": "O=C(O)Cn1ccnc1", "note": "[1H-imidazole-1-acetic acid]", "values": [{"measurement": "pKa", "value": 6.8}]}
